From article PMC10762078, “Role of UPF1-LIN28A interaction during early differentiation of pluripotent stem cells” (Nature Communications, 2024)
Ends that are not written are not given here.

Columns and labels:
[1] = tested on: nonsense-mediated mRNA decay (NMD); experiment: NMD reporter (Gl, GPx1) mRNA by RT-qPCR in LIN28A-expressing HeLa cells with CPP-peptides (Fig. 5c); format: cell-based; conditions: for relative Gl mRNA level / relative GPx1 mRNA level: normalised to MUP
Description: Fig. 5 CPP-conjugated peptide inhibits UPF1-LIN28A interaction. a Schematic representation of designated CPP-conjugated peptides. The amino acid sequences and positions of each peptide on UPF1 are indicated. CPP-P1 and -P2 served as negative controls. CPP-FITC was used to evaluate cell-penetrating ability in cells. b 293T cell lysates co-transfected with pCMV-MYC-UPF1 and pGEX-GST-LIN28A and incubated with the indicated CPP-conjugated peptides were employed for GST pull-down. c Relative levels of NMD reporters were measured in LIN28A-expressing HeLa cells incubated with the indicated CPP-conjugated peptides. mRNA level was normalised to that of MUP mRNA. d PLA was performed using LIN28A-overexpressing HeLa cells and hPSCs in the presence of indicated peptides. Red: fluorophore in amplified DNA circle, and Blue: DAPI stained nucleus. Scale bars, 50 μm. Unpaired Student’s t-test was used. Data are presented as mean values ± SEM. All statistical test used were two-sided. The minimum number of independent biological replicate experiments was b–d n = 3. The experiments were conducted three times, each iteration producing consistent results.
(§1) For CPP-conjugated peptide delivery, HeLa, 293T, and PA-1 cells were incubated with CPP-conjugated peptides or CPP-FITC at 2 μM in DMEM with 10% FBS for 12 h a day before cell harvest. hPSCs were treated with CPP-conjugated peptides at 10 μM in mTeSR Plus Medium, and the peptide-containing medium was changed every day over 10 days. The ROCK inhibitor (Tocris Bioscience, Y-27632) treated-hPSCs were dissociated into single cells using Accutase (Merck, SCR005) and differentiated into ectoderm, mesoderm, and endoderm using the STEMdiff Trilineage Differentiation Kit ([…] Technologies, 05230) following the manufacturer’s protocol. Differentiated cells treated with CPP-conjugated peptides were analysed at 0, 3, and 5 days for ectoderm and endoderm, and at 0, 3, and 4 days for mesoderm.
Total RNA purification and RT-qPCR
Total RNA was extracted using TRIzol reagent (Invitrogen) according to the manufacturer’s protocol. After extraction, RNA was incubated with RQ1 RNase-Free DNase (Promega) to remove the exogenous and endogenous DNA.
cDNA was synthesised using RevertAid Reverse Transcriptase (Thermo Fisher Scientific, EP0441) with synthesised random hexamer (Macrogen) for total RNA or stem-loop primers for miRNA. For RT-qPCR reactions, the SensiFAST SYBR No-ROX kit (Meridian Bioscience) was used according to the manufacturer’s protocol. All data analysis and visualisation were conducted using R 3.6.1 [www.r-project.org] or GraphPad Prism 10. RT primers for miRNA and RT-qPCR primer sequences are provided in Supplementary Data 6.
Fold change in NMD efficiency represents the ratio of test NMD (PTC-containing transcript) to control NMD (PTC-free transcript), where NMD is the relative abundance of PTC-containing mRNA divided by the relative abundance of PTC-free mRNA. The abundance of MUP mRNA was used as the reference.

CHA15 cells = experiment: Immunostaining of SOX1, DLK1 and LHX2 during ectodermal differentiation (Fig. 7b); format: cell-based, human; conditions: for DLK1 fluorescence quantification, mean / LHX2 fluorescence quantification, mean / SOX1 fluorescence quantification, mean: mean of set1-set4
Description: as §1
hPSCs or differentiated cells were fixed in 4% paraformaldehyde (Sigma-Aldrich). After 15–20 min, the cells were washed with 0.1% bovine serum albumin in phosphate-buffered saline (BSA/PBS) thrice and blocked for 1 h by adding 0.3% Triton X-100 (Sigma-Aldrich) and 10% normal goat serum (NGS; Fitzgerald industries, NG22S). After blocking, cells were incubated with the following primary antibodies: anti-UPF1 (Cell Signaling Technology, 12040; 1:500), LIN28A (Cell Signaling Technology, 3978; 1:500), OCT4 (Santa Cruz, sc-5279; 1:500), NANOG (Cell Signaling Technology, 4903; 1:500), DLK1 (GeneTex, GTX60511; 1:500), SOX1 (Cell Signaling Technology, 4194; 1:500), or LHX2 (GeneTex, GTX129241; 1:500). Primary antibodies were incubated overnight at 4 °C followed by incubation with the following secondary antibodies: Cy3 (Jackson ImmunoResearch, 115-165-146; 1:500) or Alexa Fluor 488 (Invitrogen, A-11008; 1:500) followed by the incubation with secondary fluorescence-conjugated antibodies for 1 h. The cells were mounted in […] with DAPI mounting medium (Vector Laboratories, H1200).
Immunofluorescence staining, proximity ligation assay imaging, and cell-penetrating efficiency of CPP-FITC were imaged with a confocal laser scanning microscope (Leica, TSC SP5) or immunofluorescence microscope (Leica, DM5000B). Z-stacks were captured, with sections spanning the entire cell. The LAS X Life Science program was used to obtain the maximum intensity projections and cross-sections of the confocal images.

[2] = ectodermal differentiation, CHA15
[3] = LIN28A-expressing HeLa, CPP-peptide, replicate set1
[4] = LIN28A-expressing HeLa, CPP-peptide, replicate set2
[5] = LIN28A-expressing HeLa, CPP-peptide, replicate set3
[6] = Fig 7b, vs. P1, ± SEM, unpaired t test, df=6

Substance | increased Gl Ter and GPx1 Ter levels caused by LIN28A ([1]; LIN28A-expressing HeLa, 2 μM, 12 h) | DLK1 and LHX2 expression (CHA15 cells; [2]) | SOX1 expression (CHA15 cells; [2]) | relative Gl mRNA level ([1]; FLAG control (no LIN28A) HeLa, CPP-peptide, replicate set2) | relative GPx1 mRNA level ([1]; FLAG control (no LIN28A) HeLa, CPP-peptide, replicate set3) | relative GPx1 mRNA level [1, 3] | relative Gl mRNA level [1, 3] | relative GPx1 mRNA level [1, 4] | relative Gl mRNA level [1, 4] | relative GPx1 mRNA level [1, 5] | relative Gl mRNA level [1, 5] | DLK1 fluorescence quantification, mean (CHA15 cells; Fig 7b) | LHX2 fluorescence quantification, mean (CHA15 cells; Fig 7b) | SOX1 fluorescence quantification, mean (CHA15 cells; Fig 7b) | GPx1 mRNA, mean ([1]; LIN28A-expressing HeLa, CPP-peptide, mean in t-test output, n = 3) | GPx1 mRNA, difference between means (C - B) ± SEM ([1]; LIN+P8 minus LIN+P1) | Gl mRNA, difference between means (C - B) ± SEM ([1]; LIN+P8 minus LIN+P1) | DLK1 fluorescence quantification, difference between means ± SEM (CHA15 cells; [6]) | LHX2 fluorescence quantification, difference between means ± SEM (CHA15 cells; [6]) | SOX1 fluorescence quantification, difference between means ± SEM (CHA15 cells; [6])
KKKWCRKKKSSADEKRYRALKRTAERELLMNA [CPP-P8, CPP conjugated to P8] | efficiently reversed by CPP-P8 | increased DLK1 and LHX2 expression | abrogated SOX1 expression | – | – | – | – | – | – | – | – | – | – | – | – | – | – | – | – | –
N-QKLDQKELQLEPM-C [P1, reference compound] | – | – | – | 1.21 | 1.026 | 2.435 | 3.179 | 2.54 | 5.571 | 2.254 | 4.729 | 30.09 | 34.79 | 60.17 | – | – | – | – | – | –
KKKWCRKKKSSADEKRYRALKRTAERELLMNA [P8] | – | – | – | – | – | 1.006 | 1.305 | 1.229 | 0.7968 | 0.4585 | 1.128 | 98 | 65.64 | 40.11 | 0.2385 | -0.4015 ± 0.06473 | -1.443 ± 0.3024 | 67.91 ± 4.905 | 30.85 ± 5.040 | -20.06 ± 8.048
